Experimental data published in patent EP1543832A2, “Use of trans-4[4-(3-chloro-4-methoxy-benzylamino) benzothieno[2,3-d]pyrimidin-2-yl]-cyclohexanecarboxylic acid in the treatment of extrapyramidal movement disorders” (MERCK PATENT GmbH, priority 2003, dated 2005).

Experiments:
[1] = system: systemic 3-nitropropionic acid (3-NP) model in rats; test: Systemic 3-nitropropionic acid (3-NP) model, nocturnal activity; assay type: in vivo
Protocol: A typical animal model is the systemic 3-nitropropionic acid (3-NP) model in rats according to C.V. Borlongan et al., Brain Res., 1995; 697: 254-257. Rats are treated with injections of the selective striatal neurotoxin 3-NP i.p. every fourth day (C.V. Borlongan et al., Brain Res. Protocols, 1997; 1: 253-257). After two injections of 3-NP, rats display nocturnal hyperactivity reflecting symptoms of early Huntington's disease, whereas rats treated with four injections of 3-NP display nocturnal akinesia (hypoactivity) reflecting symptoms of late Huntington's disease. Nocturnal activity is automatically measured in conventional acitivity cages by infrared beams. Trans-4-[4-(3-chloro-4-methoxybenzylamino)-benzothieno-[2,3-d]pyrimidin-2-yl]cyclohexanecarboxylic acid or a physiologically acceptable salt thereof reduce both the nocturnal hyperactivity and akinesia.

[2] = system: neuroleptics sensitized monkey; test: Neuroleptics sensitized monkey, haloperidol challenge; assay type: in vivo; settings: given after haloperidol challenge; scoring system
Excerpt: Another typical animal model is the neuroleptics sensitized monkey according to D.E. Casey, Psychopharmacology, 1996; 124: 134-140. Monkeys treated repeatedly with conventional neuroleptics are highly sensitive to a subsequent challenge dose of neuroleptic drugs. When challenged, the monkeys immediately show extrapyramidal motor side effects such as dystonia, dyskinesias, akathisia, and bradykinesia which are rated by a scoring system. The conventional neuroleptic drug haloperidol is given as a challenge.

[3] = system: patients with Huntington's disease; test: Placebo-controlled add-on trial in Huntington's disease; assay type: in vivo; settings: AIMS, UHDRS, video recordings; add-on 2.5 to 20 mg b.i.d. versus placebo
Protocol: A typical trial to establish the effect of the compounds according to the invention on chorea, voluntary motor performance, and functional disability in patients with Huntington's disease encompasses 32 genetically diagnosed patients. Trans-4-[4-(3-chloro-4-methoxybenzylamino)-benzothieno-[2,3-d]pyrimidin-2-yl]cyclohexanecarboxylic acid sodium or ethanolamine salt or placebo is administered as "add on" to the conventional treatment, which is maintained unchanged during the whole study. The dose of blinded medication is titrated over a period of 3 weeks in a range from 2.5 to 20 mg b.i.d. Then the medication is held constant for 1 week. Assessments are performed in the week before and at the last day of the trial. Chorea is scored using the abnormal involuntary movement scale (AIMS, W. Guy, in: ECDEU assessment manual. Rockville MD: US dept. of health, education and welfare, 1976: 534-537), the unified Huntington's disease rating scale (UHDRS, Huntington study group, 1996, Movement Disord, 11: 136-42), and judgement of video recordings. Voluntary motor performance is assessed using the UHDRS motor scale. Patients and their partners complete a questionnaire regarding functional disability.

[4] = system: catalepsy; test: Ability of a drug to induce catalepsy (extrapyramidal motor side effects); assay type: in vivo, rat; settings: measured in e.g. rodents by the ability of a drug to induce catalepsy
Protocol: Extrapyramidal motor side effects in e.g. rodents are measured by the ability of a drug to induce catalepsy. Catalepsy is defined as a state where an animal continues to remain in an unnormal (nonphysiological 'uncomfortable') posture for a long time (e.g.: M.E. Stanley and S.D. Glick, Neuropharmacology, 1996; 15: 393-394; C.J.E. Niemegeers and P. Janssen, Life Sci., 1979, […]). For example, if a hindpaw of a rat is placed on an elevated level, e.g. a platform elevated 3 cm above ground level, a normal rat immediately withdraws the hindpaw from the platform to the ground level. A cataleptic rat remains in this unnatural posture even for minutes.

[5] = system: posthypoxic myoclonus; test: Posthypoxic myoclonus after cardiac arrest; assay type: in vivo; settings: rats resuscitated after cardiac arrest for 8 minutes
Protocol: A typical animal model for myoclonus is myoclonus induced by an acute hypoxic episode according to D.D. Truong et al., Mov. Dsiord., 1994; 9: 201-206). In this model of posthypoxic myoclonus, rats undergo a cardiac arrest for 8 minutes and are resuscitated thereafter. Myoclonic jerks occur spontaneously but can be provoked by auditory stimulation, too, worsening over the days following cardiac arrest.

[6] = system: reserpinized rat or mouse; test: Reserpine-induced akinesia in activity meters; assay type: in vivo; settings: 24 h after reserpine
Protocol: A typical animal model is the reserpinized rat or mouse (e.g. M.S. Starr and B.S. Starr, J. Neural Transm. - Park. Dis. Dement. Sect., 1994; 7: 133-142; M. Gossel et al., J. Neural Transm. - Park. Dis. Dement. Sect., 1995; 10: 27-39; N.R. Hughes et al., Mov. Disord., 1998; 13: 228-233). Reserpine is a potent depleter of monoamines and produces nearly complete akinesia in both species. Prominent 24 h after application, the distance travelled and the time active is nearly zero as measured in conventional activity meters.

For `COc1ccc(CNc2nc([C@H]3CC[C@H](C(=O)O)CC3)nc3sc4ccccc4c23)cc1Cl` [trans-4-[4-(3-chloro-4-methoxybenzylamino)-benzothieno-[2,3-d]pyrimidin-2-yl]cyclohexanecarboxylic acid], the nocturnal akinesia ([1]; after four injections of 3-NP (late Huntington's disease)) was “reduce”, the nocturnal hyperactivity ([1]; after two injections of 3-NP (early Huntington's disease)) was “reduce” and the “extrapyramidal motor side effects” value [2] was “dose-dependently reduce”. The “voluntary and involuntary motor performance” value [3] was “significant improvement”, the “liability to induce extrapyramidal side effects” value [4] was “extremely low liability to induce extrapyramidal side effects” and the “number of spontaneous and autitory-evoked myoclonic jerks” value [5] was “dose-dependently reduce”. The akinesia [6] was “dose-dependently reduced” and the “distance travelled and time active” value ([6]; conventional activity meters) was “restored distance travelled and time active to about the level of normal animals”.
